Experimental data as given in patent US20210198647A1, “Enhancers of Neurolysin Activity” (Texas Tech University System, priority 2018, published 2021).
Where “and” joins values, the source holds several entries; their conditions need not be identical. Equal entries are not always repeated. Where two headings read alike, the source gives them in different places. Square brackets hold non-standard residues; d marks the D form. Peptide text beside a SMILES is read from it. * marks the point of attachment. NHPhenethyl = c1ccc(CCN*)cc1; Boc = CC(C)(C)OC(=O)*

Target: T1, Neurolysin (Nln) (Rattus norvegicus, UniProt P42676)
T1 construct: polyhistidine (N); made in house; host or cells: Escherichia coli (pBAD/His vector), if the rat enzyme of b61 was used
Experiment: Nln activation in isolated enzyme assay (A50, Amax)
Assay type: biochemical
Details: for EC50: read-out: A50 (concentration required to activate Nln by 50%)

[1] = 100% = normal enzyme turnover, 95% CI in parentheses

T1 sequence (P42676 38-704): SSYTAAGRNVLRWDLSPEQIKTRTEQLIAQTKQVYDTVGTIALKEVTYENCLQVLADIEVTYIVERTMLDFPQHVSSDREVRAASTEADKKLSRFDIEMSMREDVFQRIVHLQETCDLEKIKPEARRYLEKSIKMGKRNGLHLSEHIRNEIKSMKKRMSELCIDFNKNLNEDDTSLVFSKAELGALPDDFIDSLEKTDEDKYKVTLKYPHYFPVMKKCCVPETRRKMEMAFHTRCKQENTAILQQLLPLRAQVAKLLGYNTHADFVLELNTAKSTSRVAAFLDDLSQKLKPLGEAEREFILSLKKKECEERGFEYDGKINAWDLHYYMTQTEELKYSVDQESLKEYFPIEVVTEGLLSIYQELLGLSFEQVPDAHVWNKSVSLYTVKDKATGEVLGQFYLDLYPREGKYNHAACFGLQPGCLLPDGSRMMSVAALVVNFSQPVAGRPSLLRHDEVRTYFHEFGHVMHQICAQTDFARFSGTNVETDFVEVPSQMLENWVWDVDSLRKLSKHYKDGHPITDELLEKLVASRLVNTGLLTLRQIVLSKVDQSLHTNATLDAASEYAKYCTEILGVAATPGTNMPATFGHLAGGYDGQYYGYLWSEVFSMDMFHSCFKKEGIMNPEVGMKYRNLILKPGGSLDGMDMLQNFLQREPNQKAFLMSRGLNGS

Row | SMILES | Amax (maximum % activation achieved) | Amax (maximum % activation achieved) [1] | also measured
1 | N[C@H](Cc1c[nH]cn1)C(=O)NCCc1ccc(C(F)(F)F)cc1 (single isomer, unassigned) [AB-1-8-2] | 643 (588.8 to 714) % |  | 
2 | N[C@H](Cc1c[nH]cn1)C(=O)NCc1ccccc1C(F)(F)F [Compound 5k, (R)-2-amino-3-(1H-imidazol-4-yl)-N-(2-(trifluoromethyl)benzyl)propanamide] | 345.8 (317.5 to 378.3) % |  | 
3 | COc1cccc(CNC(=O)[C@H](N)Cc2cnc[nH]2)c1 [AB-1-14-2] | 477.1 (444 to 516) % |  | 
4 | O=C1NC(Cc2c[nH]cn2)C(=O)N2CCCC12 (stereo not drawn) [Cyclo(His-Pro)] |  | Inactive | A50 (concentration required to activate Nln by 50%) (95% CI in parentheses): Inactive
5 | N[C@@H](Cc1c[nH]cn1)C(=O)N[C@@H](Cc1ccc(O)cc1)C(=O)O [Compound 1, Histidine-tyrosine] (H-His-Tyr-OH) |  | 467 (424.9 to 516.9) % | Amax (maximum % activation achieved) (100% = normal enzyme turnover, 95% CI in parentheses, listed as His-Tyr): 467 (424.9 to 516.9) %
6 | N[C@H](Cc1c[nH]cn1)C(=O)NCCc1cc2ccccc2[nH]1 [SR-8-2d] | 132 (122.5 to 143.6) % |  | 
7 | N[C@@H](Cc1c[nH]cn1)C(=O)NCc1ccc(F)cc1 [Compound 5n, (S)-2-amino-N-(4-fluorobenzyl)-3-(1H-imidazol-4-yl)propanamide] | 293 (276.5-310.7) % |  | 
8 | COc1ccccc1CNC(=O)[C@H](N)Cc1c[nH]cn1 [SR16-1d] | 324.9 (304 to 349) % |  | 
9 | CC(C)(C)OC(=O)N[C@@H](Cc1c[nH]cn1)C(=O)N[C@H](Cc1ccccc1)C(=O)O [NK-61-2A] (Boc-His-[dF]-OH) |  | Inactive | A50 (concentration required to activate Nln by 50%) (95% CI in parentheses): Inactive
10 | N[C@H](Cc1c[nH]cn1)C(=O)NCc1ccc(C(F)(F)F)cc1 [Compound 5i, (R)-2-amino-3-(1H-imidazol-4-yl)-N-(4-(trifluoromethyl)benzyl)propanamide] | 319.1 (296.3 to 344.3) % |  | 
11 | N[C@@H](Cc1ccccn1)C(=O)NCCc1ccccc1 [AB-1-3-2] |  | Inactive | A50 (concentration required to activate Nln by 50%) (95% CI in parentheses): Inactive
12 | CC(C)(C)OC(=O)N[C@@H](Cc1c[nH]cn1)C(=O)NCCc1c[nH]c2ccccc12 |  | Inactive | A50 (concentration required to activate Nln by 50%) (95% CI in parentheses): Inactive
13 | N[C@H](Cc1c[nH]cn1)C(=O)NCc1cccc2ccccc12 [SR-10-1d] |  | 343 (325.2 to 363.5) % | 
14 | N[C@H](Cc1c[nH]cn1)C(=O)NCCCCc1ccccc1 [Compound 8b, (R)-2-amino-3-(1H-imidazol-4-yl)-N-(4-phenylbutyl)propanamide] |  | 233.8 (215.9 to 254.8) % | 
15 | CC(C)(C)OC(=O)N[C@@H](Cc1c[nH]cn1)C(=O)NCCc1cc2ccccc2[nH]1 [PT-1-172] |  | Inactive | A50 (concentration required to activate Nln by 50%) (95% CI in parentheses): Inactive
16 | N[C@H](Cc1c[nH]cn1)C(=O)NCCc1ccccc1 [Compound 4d, (R)-2-amino-3-(1H-imidazol-4-yl)-N-phenethylpropanamide] |  | 294.6 (278.0 to 313) % | 
17 | N[C@@H](Cc1c[nH]cn1)C(=O)NCCc1cc2ccccc2[nH]1 [SR-7-2d] | 259 (240.7 to 281) % |  | 
18 | N[C@@H](Cc1c[nH]cn1)C(=O)N1CCCC1 [SR-5-3d] |  | 173 (158.5 to 194.1) % | 
19 | N[C@@H](Cc1c[nH]cn1)C(=O)NCc1cccc2ccccc12 [SR-9-1d] |  | 264 (256.3 to 272.6) % | 
20 | N[C@H](Cc1c[nH]cn1)C(=O)NCCc1ccccc1 [AB-2-7-2] |  | 407 (382.7 to 434.9) % | 
21 | COc1ccc(CNC(=O)[C@@H](N)Cc2c[nH]cn2)cc1 [SR20-1d] | 428.8 (373 to 523.5) % |  | 
22 | N[C@H](Cc1c[nH]cn1)C(=O)NCCc1ccc([N+](=O)[O-])cc1 [Compound 4p, (R)-2-amino-3-(1H-imidazol-4-yl)-N-(4-nitrophenethyl)propanamide] | 267.5 (250.1 to 287.1) % |  | 
23 | N[C@H](C(=O)N1CCC[C@H]1C(=O)O)c1c[nH]cn1 [His-Pro] | 502 (488.4 to 515.7) % |  | 
24 | O=C(CCc1cnc[nH]1)NCCc1c[nH]c2ccccc12 [PT-1-177] |  | Inactive | A50 (concentration required to activate Nln by 50%) (95% CI in parentheses): Inactive
25 | N[C@@H](Cc1c[nH]cn1)C(=O)NCCc1ccc(F)cc1 [DF-2-2B] |  | 323.1 (311.4 to 335.6) % | EC50 (95% CI in parentheses): 27.9 µM
26 | N[C@H](Cc1c[nH]cn1)C(=O)NCc1ccc(OC(F)(F)F)cc1 [Compound 5q, (R)-2-amino-3-(1H-imidazol-4-yl)-N-(4-(trifluoromethoxy)benzyl)propanamide] | 337.1 (312 to 364.9) % |  | 
27 | N[C@H](Cc1cnc[nH]1)C(=O)NCc1cccc(C(F)(F)F)c1 [AB-1-9-2] | 184.4 (169.4 to 201.5) % |  | 
28 | N[C@@H](Cc1c[nH]cn1)C(=O)NCc1ccccc1C(F)(F)F [DF-10-2] | 334 (313.7 to 357.2) % |  | 

Row | SMILES | Amax (maximum % activation achieved) | Amax (maximum % activation achieved) [1] | also measured
29 | N[C@@H](Cc1c[nH]cn1)C(=O)NCCc1ccc(F)cc1 [Compound 4m, (S)-2-amino-N-(4-fluorophenethyl)-3-(1H-imidazol-4-yl)propanamide] |  | 323.1 (311.4 to 335.6) % | EC50 (95% CI in parentheses): 28 µM and 27.9 µM
30 | N[C@@H](Cc1c[nH]cn1)C(=O)NCc1ccccc1 [DF-3-2B] | 152.2 (137.3 to 171.5) % |  | 
31 | CC(C)(C)OC(=O)N[C@@H](Cc1c[nH]cn1)C(=O)NCCc1ccccc1 |  | Inactive | A50 (concentration required to activate Nln by 50%) (95% CI in parentheses): Inactive
32 | COc1ccc(CNC(=O)[C@H](N)Cc2cnc[nH]2)cc1 [AB-1-16-2] | 703.5 (588.9 to 915.6) % |  | 
33 | N[C@H](Cc1c[nH]cn1)C(=O)NCc1cccc2ccccc12 [Compound 10d, (R)-2-amino-3-(1H-imidazol-4-yl)-N-(naphthalen-1-ylmethyl)propanamide] |  | 343 (325.2 to 363.5) % | 
34 | N[C@@H](Cc1c[nH]cn1)C(=O)NCc1ccc(OC(F)(F)F)cc1 [Compound 5p] | 310 (287.2 to 336.1) % |  | 
35 | N[C@@H](Cc1c[nH]cn1)C(=O)N[C@@H](Cc1ccccc1)C(=O)NCCc1ccccc1 [AB-2-5-4] (H-His-Phe-NHPhenethyl) |  | 177.6 (158.7 to 198.1) % | EC50 (95% CI in parentheses): 5.4 µM
36 | N[C@@H](Cc1c[nH]cn1)C(=O)NCc1ccc2ccccc2c1 [DF-9-2] |  | 262.3 (246.7 to 279.4) % | EC50 (95% CI in parentheses): 12.3 µM
37 | N[C@H](Cc1c[nH]cn1)C(=O)NCc1cccc(C(F)(F)F)c1 [Compound 5m] | 282 (258.4 to 309.1) % |  | 
38 | N[C@H](Cc1c[nH]cn1)C(=O)NCc1ccc(F)cc1 [Compound 5o, (R)-2-amino-N-(4-fluorobenzyl)-3-(1H-imidazol-4-yl)propanamide] | 320.5 (299.7 to 343.9) % |  | 
39 | N[C@@H](Cc1c[nH]cn1)C(=O)NCc1ccc(C(F)(F)F)cc1 [DF-8-2] | 305.2 (285.3 to 328) % |  | 
40 | N[C@@H](Cc1c[nH]cn1)C(=O)Nc1ccccc1 (single isomer, unassigned) [DF-5-2A] |  | 139.8 (124.7 to 158.4) % | EC50 (95% CI in parentheses): 7.74 µM
41 | N[C@@H](Cc1c[nH]cn1)C(=O)NCc1cccc(C(F)(F)F)c1 [AB-1-6-2] | 494.4 (476.7 to 512.9) % |  | 
42 | N[C@@H](Cc1c[nH]cn1)C(=O)NCCc1ccccc1 [NK-61-4A] |  | 231 (216.2 to 248.9) % | 
43 | N[C@H](Cc1c[nH]cn1)C(=O)Nc1cccc2cccnc12 [Compound 11b, (R)-2-amino-3-(1H-imidazol-4-yl)-N-(quinolin-8-yl)propanamide] |  | 255.2 (239.9 to 278.9) % | 
44 | N[C@H](Cc1c[nH]cn1)C(=O)Nc1ccccc1 [Compound 6b, (R)-2-amino-3-(1H-imidazol-4-yl)-N-phenylpropanamide] |  | 440.3 (414.9 to 470.4) % | EC50 (95% CI in parentheses): 114 µM
45 | N[C@H](Cc1c[nH]cn1)C(=O)NCCc1ccccc1C(F)(F)F [HP2CF3] | 396.2 (384.5 to 408.5) % |  | 
46 | COc1cccc(CCNC(=O)[C@H](N)Cc2c[nH]cn2)c1 [SR15-1d] |  | 255.3 (230.5 to 284.8) % | 
47 | N[C@H](Cc1c[nH]cn1)C(=O)NCc1ccc(C(F)(F)F)cc1 (single isomer, unassigned) [AB1-17-2] | 598.8 (532.8 to 692.9) % |  | 
48 | N[C@@H](Cc1c[nH]cn1)C(=O)N[C@H](Cc1c[nH]cn1)C(=O)O [Compound 2] |  | 202.8 (192.2 to 213.4) % | 
49 | COc1cccc(CNC(=O)[C@@H](N)Cc2c[nH]cn2)c1 [Compound 5f] | 327.5 (309.7 to 348.2) % |  | 
50 | COc1ccc(CCNC(=O)[C@H](N)Cc2c[nH]cn2)cc1 [Compound 4f, (R)-2-amino-3-(1H-imidazol-4-yl)-N-(4-methoxyphenethyl)propanamide] |  | 378.3 (350.5 to 411.9) % | 
51 | N[C@H](Cc1c[nH]cn1)C(=O)NCCc1ccc(C(F)(F)F)cc1 [Compound 4l, (R)-2-amino-3-(1H-imidazol-4-yl)-N-(4-(trifluoromethyl)phenethyl)propanamide] | 330.1 (313.9 to 347.7) % |  | 
52 | NC(Cc1c[nH]cn1)C(=O)NCCc1cc2ccccc2[nH]1 (racemic) [(±)PT-1-173 RACEMIC] | 311 (298.6 to 325.7) % |  | 
53 | COc1ccc(CCNC(=O)[C@@H](N)Cc2c[nH]cn2)cc1 [Compound 4e, (S)-2-amino-3-(1H-imidazol-4-yl)-N-(4-methoxyphenethyl)propanamide] |  | 339.4 (314.2 to 369.3) % | 
54 | N[C@H](Cc1c[nH]cn1)C(=O)NCCCc1ccccc1 [Compound 7b, (R)-2-amino-3-(1H-imidazol-4-yl)-N-(3-phenylpropyl)propanamide] |  | 281.8 (269.9-294.5) % | 
55 | N[C@H](Cc1c[nH]cn1)C(=O)NCCc1ccc2ccccc2c1 [SR19-2d] | 339.8 (325.4 to 355.4) % |  | 
